In patent US7629317B2, “Control of growth and repair of gastro-intestinal tissues by gastrokines and inhibitors” (The University of Chicago, priority 2001, dated 2009):
Entries after “also recorded” stand apart in the source; their conditions may differ.

Legend:
Escherichia coli = experiment: Growth of other bacteria and fungi; assay type: cell-based
WI-38 fibroblasts = experiment: Growth of WI-38 fibroblasts (non-GI control); assay type: cell-based, human; conditions: peptide up to 8 μg/ml
Description: (§1) To characterize the capacity of gastric and intestinal cells to respond to AMP-18, AGS gastric adenocarcinoma cells, HAE human gastric antrum mucosa primary cultures transformed with SV40 large T antigen, rat diploid small intestinal epithelial cells of the IEC-6 (FIG. 15) and IEC-18 lines, NCI N-87 gastric carcinoma cells, and SK-GT5 gastroesophageal adenocarcinoma cells were studied; human WI-38 fibroblasts and HeLa cells served as non-GI control cell lines. Mitogenesis was assayed by performing cell counts 3 to 4 days after exposing cells to the agent of interest, trypsinizing the culture to prepare single cells, and confirming this while counting them in a hemocytometer.

[1] = test system: protein kinase (PK) C zeta (ζ); experiment: Phosphorylation of PKCζ in C2 cells (immunoblotting, confocal microscopy); assay type: cell-based, human; conditions: within 20 min
Excerpt: To learn more about how AMP peptide could participate in the establishment of TJ structures and epithelial cell polarity during epithelial wound healing, attention was focused on protein kinase (PK) C zeta (ζ), an atypical PKC that appears to be required for assembly of TJs (Suzuki et al., 2001). PKCζ, presumably in its active form phospho-PKCζ, regulates TJs, apparently by interacting with several TJ-associated proteins including occludin, PAR-6, and PAR-3.

Pseudomonas aeruginosa = experiment: Growth of other bacteria and fungi; assay type: cell-based
HAE cells [2] = experiment: Wound restitution (migration) of scrape-wounded HAE cell monolayers; assay type: cell-based, human
Description: (§2) To measure growth (left panel), HAE cells were plated in 60-mm dishes. Peptide 77-97 (8 μg/ml), or EGF (50 ng/ml), or both were added to the medium and the number of cells counted 4 days later. […] Values are means±SE for 3 cultures. To measure migration (right panel), cells were grown in 60-mm dishes to prepare a confluent monolayer. The medium was aspirated and replaced with fresh medium containing 0.01% calf serum (CS). The monolayer was mechanically wounded by scraping with a razor blade. Detached cells were removed by aspirating medium, and rinsing the remaining cells twice with fresh medium containing 0.01% CS. Fresh medium (5 ml) containing CS (0.01%) and insulin (100 U/L) was added to wounded cultures. Either peptide 77-97 (8 μg/ml), EGF (50 ng/ml), or both were added to duplicate cultures. Migration was assessed at 24, 48 and 72 hr after wounding by measuring the distance (in mm) that cells had migrated from the wound edge using a microscope eyepiece reticle (10-mm long; 0.1-mm markings). Migrating cells at 12 randomly chosen sites along a 0.25-mm stretch of the wound edge were measured at 40-fold magnification. Migration at 2 different sites was measured for each of 2 separate wounds made in each culture. Values are the mean distance cells moved into the denuded area from the edge of 4 different wounds in 2 cultures±SE.
Confluent monolayer cultures were mechanically wounded by scraping with a razor blade, and the distance that cells migrated from the wound edge was measured using a microscope eyepiece reticle.

Klebsiella pneumoniae = experiment: Growth of other bacteria and fungi; assay type: cell-based
HAE cells [3] = experiment: Growth of human antrum epithelial (HAE) cells (cell count 4 days later); assay type: cell-based
Description: as §2, §1

IEC-6 cells = experiment: [3H]thymidine incorporation into DNA in IEC-6 cells; assay type: cell-based, rat
Excerpt: Growth stimulation by peptide 77-97 was additive with that of EGF. […] HAE cells were used to test whether AMP-18 can exert an effect on epithelial cells that exist in the local environment of its synthesis. These cells, provided by Dr. Duane Smoot, Howard University College of Medicine, are not completely immortalized and therefore have limited passage number. Growth stimulation of HAE cells by peptide 77-97 was apparently additive with that of EGF (FIG. 16, left panel). Not only does the AMP peptide stimulate growth but it also acted as a motogen, resulting in more rapid migration (restitution) of cells into scrape wounds made in confluent cultures. […] Near-maximal growth stimulation was detected at an AMP peptide concentration of 0.5 μg/ml (0.23 μM) (FIG. 15, center panel), a much lower value than the concentration needed for trefoil peptides (1 μg/μl) (˜150 μM) or the α-defensin, cryptdin 3 ([…]) (˜140 μM) to exert their effects in culture. […]
Non-transformed monkey kidney epithelial cell line BSC-1 and other epithelial cell lines were used to assess effects on growth. […] AMP-18 preparations were added to the culture medium and 4 days later the cell monolayer was rinsed, detached with trypsin, and the cells were counted using a hemocytometer. […]

AGS cells = experiment: Growth of gastric epithelial AGS cells (cell count four days later); assay type: cell-based, human
Description: as §1

[4] = peptide 77-97 8 μg/ml + EGF 50 ng/ml

In the case of “LDALVKEKKLQGKGPGGPPPK [97–117, peptide 77-97 of the mature protein, same as 97-117 of the human precursor]”, the “growth of Escherichia coli” value (Escherichia coli) is reported as “did not alter the growth”, the “growth stimulation of WI-38 fibroblasts” value (WI-38 fibroblasts) is reported as “does not stimulate growth” and the “growth stimulation of WI-38 fibroblasts” value (WI-38 fibroblasts; listed as AMP peptide) is reported as “failure”. For the same sequence, the “phosphorylation of PKCζ” value [1] was “increase in phosphorylation”, the “growth of Pseudomonas aeruginosa” value (Pseudomonas aeruginosa) was “did not alter the growth” and the “migration from the wound edge compared with vehicle” value (HAE cells [2]; peptide 8 μg/ml, EGF 50 ng/ml, 24-72 hr) was “migrated further”. The “migration, peptide and EGF acting together” value (HAE cells [2]; [4]) was “markedly enhanced migration”, the “growth of Klebsiella pneumoniae” value (Klebsiella pneumoniae) was “did not alter the growth” and the “proliferation together with EGF” value (HAE cells [3]; [4]) was “additive”. For the same sequence, the “proliferation of HAE cells (in words)” value (HAE cells [3]; peptide 77-97 8 μg/ml, EGF 50 ng/ml, 4 days) was “stimulated proliferation”, the “stimulation of [3H]thymidine incorporation into DNA” value (IEC-6 cells; P<0.001) was 68% and the “[3H]thymidine incorporation into DNA” value (IEC-6 cells; with peptide, without 16,668±616) was 28,036±882. The “growth stimulation together with EGF” value (AGS cells; [4]) was “additive” and the “growth stimulation of AGS cells (in words)” value (AGS cells; peptide 77-97 8 μg/ml, EGF 50 ng/ml at saturating doses) was “stimulated growth; also recorded: mitogenic”.
